Measured values as given in US20260250320A1, “LIPIDATED PEPTIDE INHIBITORS OF INTERLEUKIN-23 RECEPTOR” (Janssen Pharmaceutica NV, priority 2023, published 2026).
*1 amine or outer side, *2 acyl side, *3 side chain or, on linkers, in order; H or OH if unused. Where a SMILES comes first, the peptide text is derived from it. Bridges are numbered along the chain shown (N, C = ends). Side-chain parts run from the residue outwards. [ ]: non-standard residue; d: D form. The star is where a group is joined. ξ: configuration not given here. X18 = O=C(O)CCCCCCCCCCCCCCCCC(=O)N[C@@H](CCC(=O)NCCOCCOCCOCCOCCOCOCCOCCOCCOCCOCCOCCOCCC(=O)*)C(=O)O; X16 = CC(C)(S[*:2])[C@H](CC(=O)CCOCCOCC[N+](C)(C)C)C(=O)[*:1]; CH2CH2OCH2CH2OCH2CH2NMe3+ = C[N+](C)(C)CCOCCOCC*; Trp(7-Me) = Cc1cccc2c(C[C@H](N)C(=O)O)c[nH]c12; C20 diacid = O=C(O)CCCCCCCCCCCCCCCCCCC(=O)*; C18 diacid = O=C(O)CCCCCCCCCCCCCCCCC(=O)*; γGlu = O=C(O)[C@H](CCC(=O)[*:2])N[*:1]; 2Nal = N[C@@H](Cc1ccc2ccccc2c1)C(=O)O; AEF = NCCOc1ccc(C[C@H](N)C(=O)O)cc1; X2 = C[N+](C)(C)C[C@@H](CC(=O)O)N*; 3Pal = N[C@@H](Cc1cccnc1)C(=O)O; Lys(Me) = CNCCCC[C@H](N)C(=O)O; NMeK = CN[C@@H](CCCCN)C(=O)O; Pen = CC(C)(S)[C@H](N)C(=O)O; Suc = O=C(CCC(=O)[*:2])[*:1]; Thp = NC1(C(=O)O)CCOCC1; X1 = C[N+](C)(C)CCCCC*; ξN = NC(=O)CC(N)C(=O)O; AEEA = NCCOCCOCC(=O)O; Sar = CNCC(=O)O

Key:
IL-23R = biological target: T1, IL-23R (Homo sapiens, UniProt Q5VWK5); experiment: IL23R Reporter Assay; format: cell-based; conditions: HEK293 cells containing IL-23R, IL-12Rβ1 and STAT-inducible firefly luciferase reporter; 10 ng/mL IL-23 (EC90); 5 h
T1 construct: HEK293 cells containing IL-23R, IL-12Rβ1 and a firefly luciferase reporter gene driven by a STAT-inducible promoter (Promega); host or cells: HEK293
T1 sequence (Q5VWK5 24-629): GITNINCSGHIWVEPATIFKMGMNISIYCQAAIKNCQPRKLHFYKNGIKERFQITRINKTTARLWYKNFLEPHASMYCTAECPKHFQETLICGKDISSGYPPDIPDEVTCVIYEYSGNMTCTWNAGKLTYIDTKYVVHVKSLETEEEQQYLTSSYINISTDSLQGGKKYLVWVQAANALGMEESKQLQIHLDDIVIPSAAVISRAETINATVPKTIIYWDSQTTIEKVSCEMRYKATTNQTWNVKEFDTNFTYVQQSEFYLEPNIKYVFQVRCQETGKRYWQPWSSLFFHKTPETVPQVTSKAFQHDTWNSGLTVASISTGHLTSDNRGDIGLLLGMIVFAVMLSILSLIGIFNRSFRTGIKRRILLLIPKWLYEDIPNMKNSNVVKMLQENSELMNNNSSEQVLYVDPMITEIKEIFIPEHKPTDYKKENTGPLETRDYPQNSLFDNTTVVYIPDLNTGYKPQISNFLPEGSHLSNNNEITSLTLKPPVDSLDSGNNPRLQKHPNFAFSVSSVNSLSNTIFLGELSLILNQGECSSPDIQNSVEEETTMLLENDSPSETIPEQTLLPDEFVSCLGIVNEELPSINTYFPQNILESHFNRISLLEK
Method in brief: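 HEK293 cells carrying IL-23R, IL-12Rβ1 and a STAT-driven firefly luciferase reporter (4000 cells/well) received compound, then 10 ng/mL IL-23 solution (EC90), and were incubated for 5 h at 37° C. BioGlo luminescence was normalised to IL-23 alone (0%) and 30 μM control inhibitor (100%). IC50 came from a 4-parameter Hill fit.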

[1] = tested on: IL-23-stimulated phosphorylated STAT3 in peripheral blood mononuclear cells (PBMCs); experiment: PBMC pSTAT3 Assay; format: cell-based; conditions: PBMCs from healthy donors; 30 min preincubation with peptide; IL-23 5 ng/mL for 30 min; phospho-STAT3 by MSD
Method in brief: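 Healthy-donor PBMCs expanded 4 days on anti-CD3 with 100 ng/mL IL-1β, starved ~4 h in RPMI-0.1% BSA, preincubated 30 min with peptide, then stimulated 30 min at 37 °C with 5 ng/mL IL-23. Lysate pSTAT3 measured by MSD phospho-STAT panel; IC50 derived.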

Structure (SMILES) | IC50 (IL-23R) [nM] | IC50 [1] [nM]
CC(=O)N(C)CCCC[C@@H]1NC(=O)[C@H](Cc2c[nH]c3c(C)cccc23)NC(=O)[C@H]([C@@H](C)O)NC(=O)[C@H](CC(=O)N(C)C)NC(=O)[C@@H](NC(=O)COCCOCCNC(=O)COCCOCCNC(=O)CC[C@H](NC(=O)CCCCCCCCCCCCCCCCC(=O)O)C(=O)O)C(C)(C)SSC(C)(C)[C@@H](C(=O)N[C@@H](Cc2ccc(OCCCCC[N+](C)(C)C)cc2)C(=O)N[C@@H](Cc2ccc3ccccc3c2)C(=O)NC2(C(=O)N[C@@H](CCCCN(C)C(C)=O)C(=O)N[C@@H](CC(N)=O)C(=O)N[C@@H](Cc3cccnc3)C(=O)N(C)CC(=O)N(C)C)CCOCC2)NC1=O [compound 118, HOC18gEPEG2PEG2CO-Pen(3)-N(N(Me)2)-T-7MeW-K(NMeAc)-Pen(3)-TMAPF-2Nal-THP-K(NMeAc)-N-3Pya-Sar-CON(Me)2] ({C18 diacid-γGlu-AEEA-AEEA}-[Pen]D(NMe2)T[Trp(7-Me)][Lys(Me)](Ac)[Pen]Y(X1)[2Nal][Thp][Lys(Me)](Ac)N[3Pal][Sar]-NMe2; disulfide 1-6) | < 50 | < 0.5
CC(=O)N(C)CCCC[C@@H]1NC(=O)[C@H](Cc2c[nH]c3c(C)cccc23)NC(=O)[C@H]([C@@H](C)O)NC(=O)[C@H](CC(=O)N(C)C)NC(=O)[C@@H](CC(=O)CCOCCOCC[N+](C)(C)C)C(C)(C)SSC(C)(C)[C@@H](C(=O)N[C@@H](Cc2ccc(OCCOCCOCC[N+](C)(C)C)cc2)C(=O)N[C@@H](Cc2ccc3ccccc3c2)C(=O)NC2(C(=O)N[C@@H](CCCCN(C)C(C)=O)C(=O)NC(CC(N)=O)C(=O)N[C@@H](Cc3cccnc3)C(=O)N(C)[C@@H](CCCCNC(=O)COCCOCCNC(=O)COCCOCCNC(=O)CC[C@H](NC(=O)CCCCCCCCCCCCCCCCCCC(=O)O)C(=O)O)C(N)=O)CCOCC2)NC1=O (some centres unmarked) [compound 112, cPEG3aCO-Pen(3)-N(N(Me)2)-T-7MeW-K(NMeAc)-Pen(3)-APEG3F-2Nal-THP-K(NMeAc)-N-3Pya-NMeK(PEG2PEG2gEC20OH)-CONH2] (D(NMe2)T[Trp(7-Me)][Lys(Me)](Ac)[Pen]Y(CH2CH2OCH2CH2OCH2CH2NMe3+)[2Nal][Thp][Lys(Me)](Ac)[ξN][3Pal][NMeK]([AEEA-AEEA-γGlu-C20 diacid])-NH2; linker N-5 via X16) | 50 to 500 | 0.5 to 5
CC(=O)NCCCC[C@@H]1NC(=O)[C@H](Cc2c[nH]c3c(C)cccc23)NC(=O)[C@H]([C@@H](C)O)NC(=O)[C@H](CC(N)=O)NC(=O)[C@@H](NC(=O)[C@@H](CCCNC(=N)N)NC(C)=O)C(C)(C)SSC(C)(C)[C@@H](C(=O)N[C@@H](Cc2ccc(OCCNC(=O)COCCOCCNC(=O)COCCOCCNC(=O)CC[C@H](NC(=O)CCCCCCCCCCCCCCCCC(=O)O)C(=O)O)cc2)C(=O)N[C@@H](Cc2ccc3ccccc3c2)C(=O)NC2(C(=O)N[C@@H](CCCCNC(=O)CCC(=O)N[C@H](CC(=O)O)C[N+](C)(C)C)C(=O)N[C@@H](CC(N)=O)C(=O)N[C@@H](Cc3cccnc3)C(=O)N(C)CC(N)=O)CCOCC2)NC1=O [compound 9, MeCO-r-Pen(3)-N-T-7MeW-K(Ac)-Pen(3)-AEF(PEG2PEG2gEC18OH)-2Nal-THP-K(d)-N-3Pya-Sar-CONH2] (Ac-[dR][Pen]NT[Trp(7-Me)]K(Ac)[Pen][AEF]([AEEA-AEEA-γGlu-C18 diacid])[2Nal][Thp]K([Suc-X2])N[3Pal][Sar]-NH2; disulfide 2-7) | < 50 | < 0.5
CC(=O)NCCCC[C@@H]1NC(=O)[C@H](Cc2c[nH]c3c(C)cccc23)NC(=O)[C@H]([C@@H](C)O)NC(=O)[C@H](CCCCNC(=O)CCOCCOCCOCCOCCOCCOCCOCOCCOCCOCCOCCOCCNC(=O)CC[C@H](NC(=O)CCCCCCCCCCCCCCCCC(=O)O)C(=O)O)NC(=O)[C@@H](NC(C)=O)C(C)(C)SSC(C)(C)[C@@H](C(=O)N[C@@H](Cc2ccc(OCCN)cc2)C(=O)N[C@@H](Cc2ccc3ccccc3c2)C(=O)NC2(C(=O)N[C@@H](CCC(=O)O)C(=O)N[C@@H](CC(N)=O)C(=O)N[C@@H](Cc3cccnc3)C(=O)N(C)CC(N)=O)CCOCC2)NC1=O [compound 97, MeCO-Pen(3)-K(PEG12gEC18OH)-T-7MeW-K(Ac)-Pen(3)-AEF-2Nal-THP-E-N-3Pya-Sar-CONH2] (Ac-[Pen]K(X18)T[Trp(7-Me)]K(Ac)[Pen][AEF][2Nal][Thp]EN[3Pal][Sar]-NH2; disulfide 1-6) | < 50 | < 0.5
